From patent publication US20110294728A1, “Antiviral Polypeptides” (priority 2008, published 2011)
Read-outs that look alike come from different tables or passages of the source. Where a SMILES comes first, the peptide text is derived from it. Bridges are numbered along the chain shown (N, C = ends). Where no end group is shown, it is not given here.

What was measured:
[1] = test system: efavirenz-resistance HIV strain harbouring K103N and N341V mutations on reverse transcriptase; format: in vivo, Hu-PBL-SCID transgenic mice; conditions: EFZ resistance strain; 20 mg/kg/day; peptides formulated with CADY-2c/CADY-1S1
Procedure: (§1) The potency of the peptides p27 (SEQ ID NO: 25) and p16 (SEQ ID NO: 19) was assessed in vivo following intravenous challenge of Hu-PBL-SCID transgenic mice (in which human (hu) peripheral blood leukocytes (PBLs) from healthy Epstein-Barr virus (EBV)-seropositive donors are injected into severe combined immunodeficiency (SCID) mice; Mosier et al., 1988). The mice (6 to 8 week-old male mice, 5 animals per group) were infected with wild type HIV 1 virus or efavirenz-resistance HIV strain harbouring K103N and N341V mutations on reverse transcriptase. Infected mice were treated with peptides formulated with the peptide vector CADY-2c (see above) in water at a ratio 1/20, and then particles were coated with 3% of CADY-1S1 (see above), as described in International Application WO 2007/069090. Particles were injected intravenously (100 μl) every 2 days for 1 week, then HIV-1 copy were quantified by quantitative PCR. Efavirenz (a non-nucleoside reverse transcriptase inhibitor; EFZ) was used a positive drug control.

[2] = test system: wild type HIV 1 virus; test: HIV propagation in Hu-PBL-SCID mice, wild type virus; format: in vivo, Hu-PBL-SCID transgenic mice; conditions: 20 mg/kg; peptides formulated with CADY-2c/CADY-1S1; HIV-1 DNA copies in splenocyte extracts
Procedure: as §1

[3] = target: T1, HIV-1 integrase (Human immunodeficiency virus type 1 group M subtype B, UniProt P04585); test: biochemical; format: binding
T1 construct: Integrase is a 32 kDA viral protein that is biologically active under a multimeric form
Procedure: Fluorescein-labeled peptides (40 nM) were mixed with varying concentrations of integrase in 20 mM Tris pH 7.2, 50 mM NaCl, 10 mM MgCl2, and the r values were recorded.
Effect of the different peptides on the integrase (IN) activity, DNA binding and IN/DNA dissociation were evaluated as described in Example III.1 above, using fluorescence polarization and anisotropy measurements. Binding constant of the peptide for IN was determined by steady state fluorescence and anisotropy.

[4] = test system: HIV-1-LAI strain
Procedure: The anti-HIV activities of the peptides were assayed according to the methods described in Roisin et al. (2004). Phytohemagglutinin-P(PHA-P)-activated peripheral blood mononuclear cells (PBMC) treated by increasing concentrations of peptide (from 100 to 0.1 nM), one hour later, were infected with hundred 50% tissue culture infectious doses (TCID50) per 100,000 cells of the HIV-1-LAI strain (Barre-Sinoussi et al., 1983). This virus was amplified in vitro on PHA-P-activated PBMC. Viral stock was titrated using PHA-P-activated PBMC, and 50% TCID50 were calculated using Kärber's formula (Kärber, 1931). Samples were maintained throughout the culture, and cell supernatants were collected at day 7 post-infection and stored at −20° C. Viral replication was measured by quantifying reverse transcriptase (RT) activity in cell culture supernatants. In parallel, cytotoxicity of the compounds was evaluated in uninfected PHA-P-activated PBMC by colorimetric 3-(4-5 dimethylthiazol-2-yl)2,5diphenyl tetrazolium bromite (MTT) assay on day 7 (as described in Mossmann, 1983). Experiments were performed in triplicate and repeated with another blood donor. Data analyses were performed using SofiMax® Pro 4.6 microcomputer software: percent of inhibition of RT activity or of cell viability were plotted vs concentration and fitted with quadratic curves; 50% effective doses (ED50) and cytotoxic doses (CD50) were calculated.
In order to avoid any limitation due to the poor ability of peptides to cross cellular membranes, they were associated to the peptide-based nanoparticle delivery system Pep-1 (SEQ ID NO: 29), at a 1/10 molar ratio.

[5] = target: T1, HIV-1 integrase; test: biochemical
Procedure: (§2) The simultaneous measurement of integrase-DNA interaction and subsequent 3′-processing activity by steady-state fluorescence anisotropy was performed as described in Guiot et al. (2006). […] After the initial DNA-binding step (performed at 25° C.), the 3′-processing activity was measured at 37° C. by fixed-time experiments: The reaction was stopped at varying times by adding SDS (0.25% final) which disrupts all IN-DNA complexes in the sample. The IN-mediated cleavage of the terminal GT dinucleotide (labeled by fluorescein on the 3′-end) leads to a significant decrease of r as compared to the r value corresponding to the fluorescein-labeled unprocessed DNA substrate. The fraction of released dinucleotide is calculated by using Eq. (1): […]

[6] = target: T2, HIV-1 RT (Human immunodeficiency virus type 1 group M subtype B, UniProt P03366); test: biochemical
T2 construct: The heterodimeric p66/p51 RT was eluted with an imidazole gradient; p66 and p51 derived from p66 by proteolytic cleavage of the C-terminal RNAse H domain; made in house; host or cells: E. coli (M15 for the His-tagged subunits)
Procedure: RNA-dependent-DNA RT-polymerase activity was measured in a standard reaction assay using poly(rA)-(dT)15 as template/primer as described in Restle et al. (1990). Ten microliters of reverse transcriptase (RT) at 20 nM was incubated at 37° C. for 30 min with 20 μL of reaction buffer (50 mM Tris, pH 8.0, 80 mM KCl, 6 mM MgCl2, 5 mM DTT, 0.15 μM poly(rA-dT), 15 μM dTTP, 0.3 μCi 3H-dTTP). For peptide evaluation, HIV-1 RT was incubated with increasing concentrations of peptide inhibitors for […], and polymerase reaction was initiated by adding reaction buffer. Reactions were stopped by precipitation of nucleic acids with 5 ml of 20% trichloroacetic acid (TCA) solution for 2 h on ice, then filtered using a multiwell-sample collector (Millipore), and washed with 5% TCA solution. Filters were dried at 55° C. for 30 min and radionucleotide incorporation was determined by liquid scintillation spectrometry.
A series of peptides have been derived from Pep-A sequence (SEQ ID NO: 28), which is derived from HIV-1 reverse transcriptase. First, P1 peptide (SEQ ID NO: 1) was obtained by removing the N-terminal arginine of Pep-A. Then, additional peptides were generated by performing an alanine scan on P1. P1-derived peptides were evaluated using a standard polymerase RT assay. Reported data correspond to the mean of three separate experiments.

[7] = target: IN/LEDGF complex (Human immunodeficiency virus type 1 group M subtype B, UniProt P04585); test: Dissociation of IN/LEDGF complex (AlphaScreen, immunoprecipitation); format: biochemical
Procedure: Dissociation of IN/LEDGF complex was measured by fluorescence resonance energy transfer (AlphaScreen® technology) and immunoprecipitation experiments: • Amplified Luminescent Proximity Homogeneous Assay (ALPHA): when the proteins (IN and LEDGF), linked to acceptor and donor beads, interact together (i.e., are into close proximity), a photosignal (a high amplified signal with output in the 520-560 nm range) is detected; when the proteins are not in close proximity, the reactive oxygen decays and there is no detectable signal generated; • immunoprecipitation (IP) was performed using polyclonal anti LEDGF antibodies (purchased from Santa Cruz Biotechnology, USA) and polyclonal HA antibodies (purchased from Eurogentec, Belgium). Cell line expression HA-tagged integrase was using for the experiment in the presence of increasing concentrations of peptide inhibitors.

[8] = target: T3, IN/DNA complexes (Human immunodeficiency virus type 1 group M subtype B, UniProt P04585); test: DNA-binding of integrase, fluorescence anisotropy; format: biochemical, HIV-1
Procedure: as §2

[9] = target: T3, IN/DNA complexes; test: Dissociation of pre-formed IN-DNA substrate complexes; format: biochemical, HIV-1
Procedure: For dissociation experiments, IN-DNA substrate complexes were pre-formed at 25° C. before addition of peptides. The peptide-mediated dissociation of complexes was then studied at the same temperature by measuring the decrease in the r value as a function of time.

[10] = read-out: EC50 HIV-1 lai, Table 10

Compound | reduction of viral propagation [1] | HIV propagation in vivo (in words) [2] | Kd [3] | EC50 [4, 10] | Ki [5] | Ki [6] | EC50 ([4]; read-out: EC50, antiviral activity, peptide complexed with Pep-1) | EC50 [7] | EC50 [5] | EC50 [8] | EC50 [9] | reduction of efficiency (higher Ki) relative to PAW ([6]; relative to PAW)
O=C1Nc2ccc(Cl)cc2[C@@](C#CC2CC2)(C(F)(F)F)O1 [Efavirenz, reference compound] | no effect | block HIV propagation in vivo | – | – | – | – | – | – | – | – | – | –
CC(C)C[C@@H]1NC(=O)[C@H](Cc2c[nH]c3ccccc23)NC(=O)[C@H](CCCCN)NC(=O)[C@H]([C@@H](C)O)NC(=O)CNC(=O)[C@@H](N)CSSC[C@@H](C(=O)O)NC(=O)[C@H](CC(C)C)NC(=O)[C@@H]2CCCN2C(=O)[C@H](Cc2c[nH]c3ccccc23)NC(=O)[C@H](C(C)C)NC(=O)[C@H](CCC(=O)O)NC(=O)[C@H]([C@@H](C)O)NC1=O [Peptide P16C1] (H-CGTKWLTEVWPLC-OH; disulfide 1-13) | – | – | 0.09 µM | 0.0025 µM | 4.3 µM | 32.1 µM | – | – | – | – | – | –
CC[C@H](C)[C@@H]1NC(=O)[C@H](Cc2c[nH]c3ccccc23)NC(=O)[C@H](CCC(=O)O)NC(=O)[C@H]([C@@H](C)O)NC(=O)[C@H](CC(C)C)NC(=O)[C@H](Cc2c[nH]c3ccccc23)NC(=O)[C@H](CCCCN)NC(=O)[C@H]([C@@H](C)O)NC(=O)CNC(=O)[C@@H](N)CSSC[C@@H](C(=O)O)NC(=O)[C@H](CCC(=O)O)NC(=O)[C@H](C)NC(=O)[C@H]([C@@H](C)O)NC(=O)[C@H](CC(C)C)NC(=O)[C@@H]2CCCN2C1=O [Peptide P27C1] (H-CGTKWLTEWIPLTAEC-OH; disulfide 1-16) | – | – | > 100 µM | 0.00017 µM | > 100 µM | 0.042 µM | – | – | – | – | – | –
GTKWLTEWIPL [Peptide P24] | – | – | 0.35 µM | – | – | 0.7 ± 0.05 µM | 0.0023 µM | 13 µM | 33 µM | 35 µM | 21 µM | –
KWLTEWIPLTAEAE [Peptide P26] | – | – | 0.32 µM | – | – | 1.8 ± 0.7 µM | – | > 50 µM | 28 µM | 54 µM | 67 µM | 2.5 fold
